# Measured values reported in patent US9241891B2, “Personal care compositions comprising self-assembling peptides” (The Procter & Gamble Company, priority 2012, dated 2016).
# Read-outs that look alike come from different tables or passages of the source.
# Tested on: CLAUDIN 1
# Conditions: human keratinocytes
# Method: Cultures of human keratinocytes are treated with two concentrations of solutions, of the hexadecapeptide PuraMatrix™ (supplied by BD Science). The lower concentration, which is below the estimated critical aggregation concentration (CAC) at which the RADA-16I (SEQ ID NO:1) monomer self-assembles, while the higher concentration is above the CAC.
sequence,measurement,setting,value
RADARADARADARADA [PuraMatrix ™],CLDN1 LEVEL,"High Concentration, above the CAC",1.39
same,CLDN1 LEVEL,"Low Concentration, below the estimated critical aggregation concentration (CAC)",1.09
same,CLAUDIN 1 regulation (in words),"higher concentration, above the estimated critical aggregation concentration",significantly upregulates
